Source: PubChem BioAssay AID248 (DTP/NCI, 2004)
Values joined by “and” are separate entries in the source; they are usually repeats but may differ in a detail not shown here. Equal entries are not always repeated. Inconclusive results and toxic doses are left out. No stated cut-off is given here; in the data, active means T/C of 150% or more; inactive means T/C below 125%.

System: L1210 leukemia ip in BDF1 mice, survival T/C
Test: NCI In Vivo Anticancer Drug Screen. Data for tumor model L1210 Leukemia (intraperitoneal) in B6D2F1 (BDF1) mice
Settings: endpoint: mean survival time, higher = longer survival
Outline: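 Antitumor effect is assessed in tumor-bearing animals. Survival in the compound arm is compared with a vehicle-dosed control arm and expressed as their quotient.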

[1] = dose: 200.0 mg/kg/injection, schedule: Q04DX002 (ip), vehicle: saline with Tween-80
[2] = dose: 400.0 mg/kg/injection, schedule: Q04DX002 (ip), vehicle: saline with Tween-80
[3] = dose: 100.0 mg/kg/injection, schedule: Q04DX003 (ip), vehicle: Klucel (hydroxypropylcellulose) (HPC)
[4] = dose: 200.0 mg/kg/injection, schedule: Q04DX003 (ip), vehicle: Klucel (hydroxypropylcellulose) (HPC)
[5] = dose: 400.0 mg/kg/injection, schedule: Q04DX003 (ip), vehicle: Klucel (hydroxypropylcellulose) (HPC)
[6] = dose: 50.0 mg/kg/injection, schedule: Q01DX001 (ip), vehicle: saline
[7] = dose: 100.0 mg/kg/injection, schedule: Q01DX009 (ip), vehicle: Klucel (hydroxypropylcellulose) (HPC)
[8] = dose: 200.0 mg/kg/injection, schedule: Q01DX009 (ip), vehicle: Klucel (hydroxypropylcellulose) (HPC)
[9] = dose: 400.0 mg/kg/injection, schedule: Q01DX009 (ip), vehicle: Klucel (hydroxypropylcellulose) (HPC)
[10] = dose: 100.0 mg/kg/injection, schedule: Q04DX003 (ip), vehicle: saline with Tween-80
[11] = dose: 100.0 mg/kg/injection, schedule: Q01DX009 (ip), vehicle: saline with Tween-80
[12] = dose: 200.0 mg/kg/injection, schedule: Q01DX009 (ip), vehicle: saline with Tween-80
[13] = dose: 400.0 mg/kg/injection, schedule: Q01DX009 (ip), vehicle: saline with Tween-80

Measured: T/C

Nc1nc2c(c(=O)[nH]1)CP(=S)(c1ccccc1)CC2 (stereo not drawn)
inactive: dose: 100.0 mg/kg/injection, schedule: Q04DX002 (ip), vehicle: saline with Tween-80 102 % of control | [1] 102 % of control | [2] 94 % of control

CNc1nn[nH]n1
inactive: dose: 100.0 mg/kg/injection, schedule: Q04DX003 (ip), vehicle: saline 100 % of control | dose: 200.0 mg/kg/injection, schedule: Q04DX003 (ip), vehicle: saline 93 % of control | dose: 400.0 mg/kg/injection, schedule: Q04DX003 (ip), vehicle: saline 89 % of control

CCC(COC(C)=O)(COC(C)=O)[N+](=O)[O-]
inactive: [3] 103 % of control | [4] 98 % of control | [5] 101 % of control

COC1CCC2(C)C(C)C(C)CC3OC32C1 (stereo not drawn)
inactive: [6] 95 % of control | dose: 100.0 mg/kg/injection, schedule: Q01DX001 (ip), vehicle: saline 101 % of control | dose: 200.0 mg/kg/injection, schedule: Q01DX001 (ip), vehicle: saline 95 % of control | dose: 400.0 mg/kg/injection, schedule: Q01DX001 (ip), vehicle: saline 104 % of control

CN(C)c1n[nH]c(N)n1
inactive: dose: 25.0 mg/kg/injection, schedule: Q01DX009 (ip), vehicle: saline 100 % of control | dose: 25.0 mg/kg/injection, schedule: Q04DX002 (ip), vehicle: saline 110 % of control | dose: 50.0 mg/kg/injection, schedule: Q01DX009 (ip), vehicle: saline 98 % of control | dose: 50.0 mg/kg/injection, schedule: Q04DX002 (ip), vehicle: saline 103 % of control | dose: 100.0 mg/kg/injection, schedule: Q01DX009 (ip), vehicle: saline 96 % of control | dose: 200.0 mg/kg/injection, schedule: Q01DX009 (ip), vehicle: saline 108 % of control | [1] 111 % of control | dose: 200.0 mg/kg/injection, schedule: Q04DX002 (ip), vehicle: saline 103 % of control | dose: 400.0 mg/kg/injection, schedule: Q01DX009 (ip), vehicle: saline 116 % of control | [2] 108 % of control

COC(=O)C1C=CCC2C(=O)C=C(C)C(=O)C12C (stereo not drawn)
inactive: [7] 94 % of control | [3] 96 % of control | [8] 92 % of control | [4] 100 % of control | [9] 97 % of control | [5] 96 % of control

CC(=N/NC(=O)c1ccc[n+](C)c1)/C(C)=N\NC(=O)c1ccc[n+](C)c1
inactive: dose: 25.0 mg/kg/injection, schedule: Q01DX001 (ip), vehicle: saline 95 % of control | [6] 95 % of control

Cc1nc(N)[nH]c(=O)c1CCC(C)C
inactive: dose: 100.0 mg/kg/injection, schedule: Q04DX002 (ip), vehicle: Klucel (hydroxypropylcellulose) (HPC) 93 % of control | dose: 200.0 mg/kg/injection, schedule: Q04DX002 (ip), vehicle: Klucel (hydroxypropylcellulose) (HPC) 100 % of control | dose: 400.0 mg/kg/injection, schedule: Q04DX002 (ip), vehicle: Klucel (hydroxypropylcellulose) (HPC) 96 % of control

Nc1ncnc(N)c1NC(=O)c1cc(Cl)c(OCc2ccccc2)c(Cl)c1
inactive: dose: 100.0 mg/kg/injection, schedule: Q01DX001 (ip), vehicle: saline with Tween-80 91 % of control | dose: 200.0 mg/kg/injection, schedule: Q01DX001 (ip), vehicle: saline with Tween-80 96 % of control | dose: 400.0 mg/kg/injection, schedule: Q01DX001 (ip), vehicle: saline with Tween-80 96 % of control

Clc1ccc(-c2ncnc3c2Cc2ccccc2-3)cc1
inactive: dose: 100.0 mg/kg/injection, schedule: Q01DX009 (ip), vehicle: saline sonified 98 % of control | dose: 100.0 mg/kg/injection, schedule: Q04DX003 (ip), vehicle: saline sonified 99 % of control | dose: 200.0 mg/kg/injection, schedule: Q01DX009 (ip), vehicle: saline sonified 98 % of control | dose: 200.0 mg/kg/injection, schedule: Q04DX003 (ip), vehicle: saline sonified 99 % of control | dose: 400.0 mg/kg/injection, schedule: Q01DX009 (ip), vehicle: saline sonified 97 % of control | dose: 400.0 mg/kg/injection, schedule: Q04DX003 (ip), vehicle: saline sonified 96 % of control

CCCCCCCCCCCCCCCC(=O)N(CCCCN(CCCN(C)C)C(=O)CCCCCCCCCCCCCCC)CCCN(C)C
inactive: [10] 91 % of control

CCCNC(=O)Nc1ccc(C(=O)OCC(C)C)cc1
inactive: [11] 95 % of control | [12] 93 % of control

Cc1cccc(C)c1NC(=O)Nc1ccc(Cl)cc1
inactive: [7] 97 % of control | [3] 97 % of control | [8] 96 % of control | [4] 100 % of control | [9] 91 % of control | [5] 95 % of control

O=C(Nc1ccccc1C(F)(F)F)c1ccc(Cl)c(Cl)c1
inactive: [7] 92 % of control | [3] 91 % of control | [8] 89 % of control | [4] 90 % of control | [5] 88 % of control

Cc1cc([N+](=O)[O-])cc(S(=O)(=O)O)c1C
inactive: dose: 50.0 mg/kg/injection, schedule: Q01DX009 (ip), vehicle: saline with Tween-80 102 % of control | [11] 98 % of control and 92 % of control | [12] 98 % of control and 106 % of control | [13] 98 % of control

CNCCCC(CO)NS(=O)(=O)c1ccc(C)cc1 (stereo not drawn)
inactive: dose: 100.0 mg/kg/injection, schedule: Q01DX001 (ip), vehicle: water 94 % of control | dose: 100.0 mg/kg/injection, schedule: Q04DX003 (ip), vehicle: water 92 % of control | dose: 200.0 mg/kg/injection, schedule: Q01DX001 (ip), vehicle: water 97 % of control | dose: 200.0 mg/kg/injection, schedule: Q04DX003 (ip), vehicle: water 100 % of control | dose: 400.0 mg/kg/injection, schedule: Q01DX001 (ip), vehicle: water 97 % of control | dose: 400.0 mg/kg/injection, schedule: Q04DX003 (ip), vehicle: water 87 % of control

O=C(Nc1nccs1)Nc1cc(C(F)(F)F)ccc1Cl
inactive: dose: 50.0 mg/kg/injection, schedule: Q01DX001 (ip), vehicle: carboxymethylcellulose (CMC) 103 % of control | dose: 50.0 mg/kg/injection, schedule: Q01DX009 (ip), vehicle: carboxymethylcellulose (CMC) 98 % of control and 109 % of control | dose: 50.0 mg/kg/injection, schedule: Q04DX003 (ip), vehicle: carboxymethylcellulose (CMC) 102 % of control | dose: 100.0 mg/kg/injection, schedule: Q01DX001 (ip), vehicle: carboxymethylcellulose (CMC) 97 % of control | dose: 100.0 mg/kg/injection, schedule: Q01DX009 (ip), vehicle: carboxymethylcellulose (CMC) 101 % of control and 88 % of control | dose: 100.0 mg/kg/injection, schedule: Q04DX002 (ip), vehicle: carboxymethylcellulose (CMC) 97 % of control and 101 % of control | dose: 100.0 mg/kg/injection, schedule: Q04DX003 (ip), vehicle: carboxymethylcellulose (CMC) 97 % of control | dose: 200.0 mg/kg/injection, schedule: Q01DX001 (ip), vehicle: carboxymethylcellulose (CMC) 98 % of control | dose: 200.0 mg/kg/injection, schedule: Q04DX002 (ip), vehicle: carboxymethylcellulose (CMC) 87 % of control | dose: 200.0 mg/kg/injection, schedule: Q04DX003 (ip), vehicle: carboxymethylcellulose (CMC) 96 % of control

O=S(=O)(Nc1ccc(Br)c2ccccc12)c1ccccc1
inactive: dose: 25.0 mg/kg/injection, schedule: Q01DX001 (ip), vehicle: saline sonified 97 % of control | dose: 50.0 mg/kg/injection, schedule: Q01DX001 (ip), vehicle: saline sonified 92 % of control | dose: 100.0 mg/kg/injection, schedule: Q01DX001 (ip), vehicle: saline sonified 92 % of control

O=C(O)c1ccc(Nc2ncnc3nc[nH]c23)cc1
inactive: [10] 104 % of control | dose: 200.0 mg/kg/injection, schedule: Q04DX003 (ip), vehicle: saline with Tween-80 96 % of control | dose: 400.0 mg/kg/injection, schedule: Q04DX003 (ip), vehicle: saline with Tween-80 102 % of control

CC(C)COC(=O)C1OC1(C)c1ccccc1 (stereo not drawn)
inactive: [11] 100 % of control | [12] 106 % of control | [13] 103 % of control

CCCCCCC(=O)C1OC1CCCCCCCCC(=O)O (stereo not drawn)
inactive: dose: 100.0 mg/kg/injection, schedule: Q04DX002 (ip), vehicle: other 112 % of control | dose: 400.0 mg/kg/injection, schedule: Q04DX002 (ip), vehicle: other 94 % of control
